# In patent US4447437A, “Pharmaceutical composition and method for treatment of peptic ulcer” (priority 1981, dated 1984):
# Structures can show the parent of a compound that is named as a salt.
# Assays:
# Shay ulcer of rats = test: Effect on Shay ulcer of rats (pylorus ligation); format: in vivo, Wistar male rats; details: for Inhibition rate: ulcer-index 19 h after pylorus ligation
# Method: Effect on Shay ulcer of rats
# A group of 8 Wistar male rats weighing 130-180 g were used in a group. […] Nineteen hours after ligation, the severity of ulcerous lesions in the proventricular part of the stomach was observed and expressed in a numerical scale according to the method of Adami et al. (Arch. Int. Pharmacodyn. Ther., 143, 113 (1964)) as the ulcer-index. Inhibition of ulceration was calculated with ulcer-indexes of the treated group and those of a control group. The anti-ulcer effects of well-known therapeutic agents on the market, sulpiride and cetraxate, were examined for comparison.
# [1] = system: histamine-induced ulcer in guinea-pigs; test: Effect on histamine-induced ulcer in guinea-pigs; format: in vivo, male guinea-pigs; details: for Inhibition rate: 2 h
# Method: Effect on histamine-induced ulcer in guinea-pigs
# Groups of 10 male guinea-pigs weighing 280-300 g were used. […] Two hours later, the stomach was removed and the size of the ulcerous lesions were measured. Based on the size of the lesions, the inhibitory effect of the drug was estimated. The effects of sulpiride, cetraxate and aluminum sucrose sulphate were also determined for comparison.
# [2] = system: acetic acid-induced ulcer in rats; test: Effect on acetic acid-induced ulcer in rats; format: in vivo, male Wistar rats; details: for Inhibition rate: lesion size 12 days after acetic acid
# Method: Effect on acetic acid-induced ulcer in rats
# Groups of 14-16 male Wistar rats weighing 210-280 g were used. According to the method of Okabe et al. (Folia Pharmacologica Japonica, 74, 773 (1978)), 0.015 ml of 20% acetic acid solution was injected under the serous membrane at the border of the proventricular part and glandular part of the stomach. […] The stomach was removed 12 days after the injection of acetic acid and the size of the ulcerous lesions was measured. Based on the size of the lesions, the inhibitory effect of the drug was estimated. The effects of sulpiride were also determined for comparison.
# [3] = known compound; cited from earlier work
# in vivo = details: mouse, in vivo, po, LD50, ICR mice, mortality at 7 days, Litchfield-Wilcoxon method
# Method: (§1) LD50 was calculated by the Litchfield-Wilcoxon method using mortality at 7 days after drug administration.
# ICR mice = test: in vivo; details: Table 4: ICR mice and Wistar rats, acute oral toxicity
# Method: as §1
# Solubility = format: physicochemical
# [4] = Acute oral toxicity in rats; details: rat, in vivo, Wistar rats, male, mortality at 7 days, Litchfield-Wilcoxon method
# [5] = Stability at room temperature; format: physicochemical; details: maleic acid salt
# [6] = histamine-induced ulcer, 300 mg/kg, 5 mg/kg i.v. histamine
structure (smiles),measurement,setting,value
"NC[C@H]1CC[C@H](C(=O)Oc2ccc(CCC(=O)O)cc2)CC1 [Cetraxate, reference compound]",Inhibition rate,"Shay ulcer of rats; Shay ulcer, 300 mg/kg",44.2%
same,Inhibition rate,[1]; [6],-7.0%
"CN1CCC2=C(C1)c1ccccc1Cc1ccccc12 [MO-8282, 2-N-methyl-1,2,3,4-tetrahydro-9H-dibenzo[a,e]-pyridino[3,4-c]-cycloheptatriene]",inhibitory action on Shay ulcer (in words),Shay ulcer of rats,significant inhibitory action on Shay ulcer in rats
same,Inhibition rate,"Shay ulcer of rats; Shay ulcer, 3 mg/kg s.c.",34.9%
same,Inhibition rate,"Shay ulcer of rats; Shay ulcer, 10 mg/kg s.c.",44.2%
same,efficacy compared with reference drugs (in words),"Shay ulcer of rats; Shay ulcer, versus sulpiride and cetraxate","superior to the two reference drugs, sulpiride and cetraxate"
same,inhibitory action on acetic acid-induced ulcer (in words),[2],significant inhibitory action on acetic acid-induced ulcer in rats
same,Inhibition rate,"[2]; acetic acid-induced ulcer, 3 mg/kg orally three times a day for 10 days",23.2%
same,Inhibition rate,"[2]; acetic acid-induced ulcer, 10 mg/kg orally three times a day for 10 days",51.2%
same,promotion of healing (in words),"[2]; acetic acid-induced ulcer, microscopic observation",promotion of healing by the compound was also evident under microscopic observation
same,efficacy compared with reference drug (in words),"[2]; acetic acid-induced ulcer, versus sulpiride",superior to that of the reference drug with a lower dose
same,anti-depressive activity (in words),[3],has anti-depressive activity
same,inhibitory action on histamine-induced ulcers (in words),[1],significant inhibitory action on histamine-induced ulcers in guinea-pigs
same,Inhibition rate,"[1]; histamine-induced ulcer, 3 mg/kg orally 10 min before 5 mg/kg i.v. histamine",54.7%
same,Inhibition rate,"[1]; histamine-induced ulcer, 10 mg/kg orally 10 min before 5 mg/kg i.v. histamine",98.6%
same,efficacy compared with reference drugs (in words),"[1]; histamine-induced ulcer, versus the reference drugs",superior to that of the reference drugs
same,LD50 at 168 h,in vivo; female,454 mg/kg
same,LD50 at 168 h,in vivo; male,423 mg/kg
same,toxic dose compared with therapeutic dose (in words),ICR mice,considerably higher than its therapeutic dose
same,solubility (insoluble in),"Solubility; ethanol, free base",insoluble in ethanol
same,solubility (soluble in),"Solubility; solvents in which soluble, free base","soluble in ether, ethyl acetate, n-hexane and chloroform"
same,LD50 at 168 h,[4],630 mg/kg
CN1CCC2=C(C1)c1ccccc1Cc1ccccc12 [Maleic acid salt of MO-8282],solubility (soluble in),"Solubility; water or ethanol, maleic acid salt",soluble in water or ethanol
same,stability,[5],stable at room temperature
"CCN1CCCC1CNC(=O)c1cc(S(N)(=O)=O)ccc1OC (stereo not drawn) [Sulpiride, reference compound]",Inhibition rate,"Shay ulcer of rats; Shay ulcer, 100 mg/kg",16.3%
same,Inhibition rate,"[2]; acetic acid-induced ulcer, 100 mg/kg",43.9%
same,Inhibition rate,[1]; [6],5.6%
